The record followed here is patent US10251394B2, “Molecules having pesticidal utility, and intermediates, compositions, and processes, related thereto” (Dow AgroSciences LLC, priority 2016, dated 2019).

A word on the mortality: it is the percentage killed.

Test [1] deals with Beet Armyworm (Spodoptera exigua). In words: Bioassay on Beet Armyworm (BAW), 128-well diet tray assay. Format: in vivo. The note with it: for pest or weed control at 50 µg/cm2: Beet Armyworm, Table ABC, read-out: BAW rating; for mortality at 0.05 µg/cm2 / mortality at 0.5 µg/cm2 / mortality at 5 µg/cm2: 168 h, second instar larvae, five to seven days, read-out: BAW Percent control (or mortality); for mortality at 0.05 µg/cm2: 0.05 μg/cm^2 on artificial diet; for mortality at 0.5 µg/cm2: 0.5 μg/cm^2 on artificial diet; for mortality at 5 µg/cm2: 5 μg/cm^2 on artificial diet. The method in brief: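 Percent mortality, averaged over eight wells, was scored after five to seven days at 25° C under 14:10 light-dark. Each well's diet carried 50 μg/cm^2 of test molecule applied in acetone-water (90:10) and dried before one to five second-instar larvae were added.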

Test [2] concerns Cabbage Looper (Trichoplusia ni). Kind of test: Bioassay on Cabbage Looper (CL), 128-well diet tray assay. The format is in vivo. As to conditions: for pest or weed control at 50 µg/cm2: Cabbage Looper, Table ABC, read-out: CL rating; for mortality at 0.05 µg/cm2 / mortality at 0.5 µg/cm2 / mortality at 5 µg/cm2: 168 h, second instar larvae, five to seven days, read-out: CL Percent control (or mortality); for mortality at 0.05 µg/cm2: 0.05 μg/cm^2 on artificial diet; for mortality at 0.5 µg/cm2: 0.5 μg/cm^2 on artificial diet; for mortality at 5 µg/cm2: 5 μg/cm^2 on artificial diet. The method in brief:
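Mortality after five to seven days at 25° C (14:10 photoperiod), averaged over eight wells per compound. Diet in each well carried 50 μg/cm^2 of dried test molecule and received one to five second-instar larvae.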

Regarding `O=C(CNC(=O)c1ccc(/C(F)=C/C(c2ccc(F)c(F)c2)C(F)(F)F)cc1C(F)(F)F)NCC(F)(F)F` (stereo not drawn) [F215, (Z)-4-(3-(3,4-difluorophenyl)-1,4,4,4-tetrafluorobut-1-en-1-yl)-N-(2-oxo-2-((2,2,2-trifluoroethyl)amino)ethyl)-2-(trifluoromethyl)benzamide], the pest or weed control at 50 µg/cm2 in test [1] and in test [2] was 50 to 100% throughout.
Turning to `C[C@@H](NC(=O)c1ccc(/C(F)=C/C(c2cc(F)c(F)c(C#CC(C)(C)C)c2)C(F)(F)F)cc1C(F)(F)F)C(=O)NCC(F)(F)F` (stereo partly drawn) [F216, 4-((Z)-3-(3-(3,3-Dimethylbut-1-yn-1-yl)-4,5-difluorophenyl)-1,4,4,4-tetrafluorobut-1-en-1-yl)-N—((R)-1-oxo-1-((2,2,2-trifluoroethyl)amino)propan-2-yl)-2-(trifluoromethyl)benzamide], the pest or weed control at 50 µg/cm2 in test [1] and in test [2] was 50 to 100% in each case.
In the case of `O=C(CNC(=O)c1ccc(/C(F)=C/C(c2cc(F)c(F)c(Br)c2)C(F)(F)F)cc1C(F)(F)F)NCC(F)(F)F` (stereo not drawn) [F217, (Z)-4-(3-(3-Bromo-4,5-difluorophenyl)-1,4,4,4-tetrafluorobut-1-en-1-yl)-N-(2-oxo-2-((2,2,2-trifluoroethyl)amino)ethyl)-2-(trifluoromethyl)benzamide], the pest or weed control at 50 µg/cm2 in test [1] and in test [2] was 50 to 100% each time.
`O=C(CNC(=O)c1ccc(/C(F)=C/C(c2cc(Cl)c(Cl)c(Cl)c2)C(F)(F)F)cc1)NCC(F)(F)F` (stereo not drawn) [FC1, (Z)—N-(2-Oxo-2-((2,2,2-trifluoroethyl)amino)ethyl)-4-(1,4,4,4-tetrafluoro-3-(3,4,5-trichlorophenyl)but-1-en-1-yl)benzamide]: in test [1], the mortality at 0.05 µg/cm2 is 0%, the mortality at 0.5 µg/cm2 was determined as 100% and the mortality at 5 µg/cm2 is 100%. Moreover, in test [2], the mortality at 0.05 µg/cm2 amounted to 0%, the mortality at 0.5 µg/cm2 worked out at 100% and the mortality at 5 µg/cm2 amounted to 100%.
Take `C[C@@H](NC(=O)c1ccc(/C(F)=C/C(c2cc(Cl)c(Cl)c(Cl)c2)C(F)(F)F)cc1)C(=O)NCC(F)(F)F` (stereo partly drawn) [FC2, N—((R)-1-Oxo-1-((2,2,2-trifluoroethyl)amino)propan-2-yl)-4-((Z)-1,4,4,4-tetrafluoro-3-(3,4,5-trichlorophenyl)but-1-en-1-yl)benzamide]: in test [1], the mortality at 0.05 µg/cm2 was found to be 0%, the mortality at 0.5 µg/cm2 stood at 100% and the mortality at 5 µg/cm2 came to 100%. For the same molecule, in test [2], the mortality at 0.05 µg/cm2 is 0%, the mortality at 0.5 µg/cm2 came to 100% and the mortality at 5 µg/cm2 is 100%.
In the case of `C[C@@H](NC(=O)c1ccc(/C(F)=C/C(c2ccc(Br)c(Cl)c2)C(F)(F)F)cc1C(F)(F)F)C(=O)N(C)CC(F)(F)F` (stereo partly drawn) [PF26, 4-((Z)-3-(4-Bromo-3-chlorophenyl)-1,4,4,4-tetrafluorobut-1-en-1-yl]-N—((R)-1-(methyl(2,2,2-trifluoroethyl)amino)-1-oxopropan-2-yl)-2-(trifluoromethyl)benzamide], the pest or weed control at 50 µg/cm2 in test [1] and in test [2] was 50 to 100% throughout.
Take `CN(CC(F)(F)F)C(=O)C1(NC(=O)c2ccc(/C(F)=C/C(c3ccc(Br)c(Cl)c3)C(F)(F)F)cc2C(F)(F)F)CC1` (stereo not drawn) [PF28, (Z)-4-(3-(4-Bromo-3-chlorophenyl)-1,4,4,4-tetrafluorobut-1-en-1-yl]-N-(1-(methyl(2,2,2-trifluoroethyl)carbamoyl)cyclopropyl)-2-(trifluoromethyl)benzamide]: the pest or weed control at 50 µg/cm2 in test [1] and in test [2] was 50 to 100% in each case.
As to `CN(CC(F)(F)F)C(=O)CNC(=O)c1ccc(/C(F)=C/C(c2cc(Cl)cc(C(F)(F)F)c2)C(F)(F)F)cc1C(F)(F)F` (stereo not drawn) [PF41, (Z)-4-(3-(3-Chloro-5-(trifluoromethyl)phenyl)-1,4,4,4-tetrafluorobut-1-en-1-yl)-N-(2-(methyl(2,2,2-trifluoroethyl)amino)-2-oxoethyl)-2-(trifluoromethyl)benzamide], the pest or weed control at 50 µg/cm2 in test [1] and in test [2] was 50 to 100% each time.
Consider `C[C@@H](NC(=O)c1ccc(/C(F)=C/C(c2cc(Cl)cc(C(F)(F)F)c2)C(F)(F)F)cc1C(F)(F)F)C(=O)NCC(F)(F)F` (stereo partly drawn) [PF42, 4-((Z)-3-(3-Chloro-5-(trifluoromethyl)phenyl)-1,4,4,4-tetrafluorobut-1-en-1-yl)-N-((1R)-1-oxo-1-((2,2,2-trifluoroethyl)amino)propan-2-yl)-2-(trifluoromethyl)benzamide], for which the pest or weed control at 50 µg/cm2 in test [1] and in test [2] was 50 to 100% throughout.
Regarding `C[C@@H](NC(=O)c1ccc(/C(F)=C/C(c2cc(Cl)cc(C(F)(F)F)c2)C(F)(F)F)cc1C(F)(F)F)C(=O)N(C)CC(F)(F)F` (stereo partly drawn) [PF43, 4-((Z)-3-(3-Chloro-5-(trifluoromethyl)phenyl)-1,4,4,4-tetrafluorobut-1-en-1-yl)-N—((R)-1-(methyl(2,2,2-trifluoroethyl)amino)-1-oxopropan-2-yl)-2-(trifluoromethyl)benzamide], the pest or weed control at 50 µg/cm2 in test [1] and in test [2] was 50 to 100% throughout.
As to `O=C(NC1(C(=O)NCC(F)(F)F)CC1)c1ccc(/C(F)=C/C(c2cc(Cl)cc(C(F)(F)F)c2)C(F)(F)F)cc1C(F)(F)F` (stereo not drawn) [PF44], the pest or weed control at 50 µg/cm2 in test [1] and in test [2] was 50 to 100% throughout.
Take `CN(CC(F)(F)F)C(=O)C1(NC(=O)c2ccc(/C(F)=C/C(c3cc(Cl)cc(C(F)(F)F)c3)C(F)(F)F)cc2C(F)(F)F)CC1` (stereo not drawn) [PF45, (Z)-4-(3-(3-Chloro-5-(trifluoromethyl)phenyl)-1,4,4,4-tetrafluorobut-1-en-1-yl)-N-(1-(methyl(2,2,2-trifluoroethyl)carbamoyl)cyclopropyl)-2-(trifluoromethyl)benzamide]: the pest or weed control at 50 µg/cm2 in test [1] and in test [2] was 50 to 100% each time.
In the case of `Cc1cc(C(/C=C(\F)c2ccc(C(=O)NCC(=O)N(C)CC(F)(F)F)c(C(F)(F)F)c2)C(F)(F)F)ccc1Cl` (stereo not drawn) [PF47, (Z)-4-(3-(4-Chloro-3-methylphenyl)-1,4,4,4-tetrafluorobut-1-en-1-yl)-N-(2-(methyl(2,2,2-trifluoroethyl)amino]-2-oxoethyl)-2-(trifluoromethyl)benzamide], the pest or weed control at 50 µg/cm2 in test [1] and in test [2] was 50 to 100% in each case.
Take `Cc1cc(C(/C=C(\F)c2ccc(C(=O)N[C@H](C)C(=O)NCC(F)(F)F)c(C(F)(F)F)c2)C(F)(F)F)ccc1Cl` (stereo partly drawn) [PF48]: the pest or weed control at 50 µg/cm2 in test [1] and in test [2] was 50 to 100% throughout.
As to `Cc1cc(C(/C=C(\F)c2ccc(C(=O)N[C@H](C)C(=O)N(C)CC(F)(F)F)c(C(F)(F)F)c2)C(F)(F)F)ccc1Cl` (stereo partly drawn) [PF49, 4-((Z)-3-(4-Chloro-3-methylphenyl)-1,4,4,4-tetrafluorobut-1-en-1-yl)-N—((R)-1-(methyl(2,2,2-trifluoroethyl)amino)-1-oxopropan-2-yl)-2-(trifluoromethyl)benzamide], the pest or weed control at 50 µg/cm2 in test [1] and in test [2] was 50 to 100% throughout.
`Cc1cc(C(/C=C(\F)c2ccc(C(=O)NC3(C(=O)NCC(F)(F)F)CC3)c(C(F)(F)F)c2)C(F)(F)F)ccc1Cl` (stereo not drawn) [PF50, (Z)-4-(3-(4-Chloro-3-methylphenyl)-1,4,4,4-tetrafluorobut-1-en-1-yl)-N-(1-((2,2,2-trifluoroethyl)carbamoyl)cyclopropyl)-2-(trifluoromethyl)benzamide]: the pest or weed control at 50 µg/cm2 in test [1] and in test [2] was 50 to 100% in each case.
For `Cc1cc(C(/C=C(\F)c2ccc(C(=O)NC3(C(=O)N(C)CC(F)(F)F)CC3)c(C(F)(F)F)c2)C(F)(F)F)ccc1Cl` (stereo not drawn) [PF51, (Z)-4-(3-(4-Chloro-3-methylphenyl)-1,4,4,4-tetrafluorobut-1-en-1-yl)-N-(1-(methyl(2,2,2-trifluoroethyl)carbamoyl)cyclopropyl)-2-(trifluoromethyl)benzamide], the pest or weed control at 50 µg/cm2 in test [1] and in test [2] was 50 to 100% in each case.
Take `C[C@@H](NC(=O)c1ccc(/C(F)=C/C(c2cc(Cl)c(Cl)c(Cl)c2)C(C)(F)F)cc1Cl)C(=O)NCC(F)(F)F` (stereo partly drawn) [PF60, 2-Chloro-N—((R)-1-oxo-1-((2,2,2-trifluoroethyl)amino)propan-2-yl)-4-((Z)-1,4,4-trifluoro-3-(3,4,5-trichlorophenyl)pent-1-en-1-yl)benzamide]: the pest or weed control at 50 µg/cm2 in test [1] and in test [2] was 50 to 100% throughout.
Take `CC(F)(F)C(/C=C(\F)c1ccc(C(=O)NC2(C(=O)NCC(F)(F)F)CC2)c(Cl)c1)c1cc(Cl)c(Cl)c(Cl)c1` (stereo not drawn) [PF62, (Z)-2-Chloro-4-(1,4,4-trifluoro-3-(3,4,5-trichlorophenyl)pent-1-en-1-yl)-N-(1-((2,2,2-trifluoroethyl)carbamoyl)cyclopropyl)benzamide]: the pest or weed control at 50 µg/cm2 in test [1] and in test [2] was 50 to 100% in each case.
Regarding `F/C(=C\C(c1cc(Cl)c(Cl)c(Cl)c1)C(F)(F)F)c1ccc(C(=S)NCC(=S)NCC(F)(F)F)c(C(F)(F)F)c1` (stereo not drawn) [PF88, (Z)-4-(1,4,4,4-tetrafluoro-3-(3,4,5-trichlorophenyl)but-1-en-1-yl)-N-(2-thioxo-2-((2,2,2-trifluoroethyl)amino)ethyl)-2-(trifluoromethyl)benzothioamide], the pest or weed control at 50 µg/cm2 in test [1] and in test [2] was 50 to 100% throughout.
